The text below walks through data of patent publication US10981860B2, “Caspase inhibitor and pharmaceutical composition, use and therapeutic method thereof” (Chia Tai Tianqing Pharmaceutical Group Co., Ltd., priority 2016, dated 2021).

The data set in a line: Mouse pharmacokinetic study (intravenous and oral). Type of data set: in vivo. The text has this: Experimental Example 2: Mouse Pharmacokinetic Study
The mice were randomly divided into two groups (one intravenous group and one oral group) or only oral group, 3 males in each group. The compounds were formulated into the designated preparations. The intravenous preparations should be filtered to provide clear solutions, and the oral preparations can be clear or can be uniform suspensions. All animals in the intravenous group were intravenously injected with the given doses of the compound preparations through tail veins. The oral group was administrated with the given doses of the preparations by gavage.
Whole blood samples were collected from the other side of the tail vein at 8 time points (2 min, 5 min, 15 min, 30 min, 1 h, 2 h, 4 h and 8 h after administration) in the intravenous group, about 25 μL for each sample; whole blood samples were collected from the tail vein at 8 time points (2 min, 5 min, 15 min, 30 min, 1 h, 2 h, 4 h and 8 h after administration) in the oral group, about 25 μL for each sample.
[…] were added to a centrifuge tube containing anticoagulants, and centrifuged at 4° C., 3000 g for 15 min. The supernatant plasma was quickly frozen on dry ice and stored in a ⋅ refrigerator at −70° C.±10° C. until LC-MS/MS analysis was performed.
The concentration data of plasma drug for the compounds were processed with the non-compartmental model using WinNonlin™ Version 6.3.0 (Pharsight, Mountain View, Calif.) pharmacokinetic software. The peak concentration (Cmax), time to peak concentration (Tmax) and last time for quantitative were obtained directly from the blood concentration-time chart.
The following pharmacokinetic parameters were calculated by using Log-linear Trapezoidal method: elimination phase half-life (T1/2); apparent volume of distribution (Vdss) and clearance rate (CL); the average residence time of the drug in vivo from 0 to the last time point (MRT0-last); the average residence time of the drug in vivo from zero time to infinity (MRT0-inf); the area under time-plasma concentration curve from 0 to the last time point (AUC0-last); the area under time-plasma concentration curve from zero time to infinity (AUC0-inf); initial concentration (C0).
For individual plasma concentrations of less than BQL, the concentrations appeared before Tmax were calculated as 0, and the concentrations appeared after Tmax were directly excluded. All parameters and ratios were reported in the forms of three significant digits.
The pharmacokinetic parameters of this experiment were calculated according to the theoretical blood collection times and the theoretical dose concentrations as described in the protocol. The deviations between the actual dose concentrations and the theoretical concentrations were within the range of ±20%. The deviations between the actual blood collection times and the theoretical blood collection times were in conformity with the relevant SOP (the point within 1 hour after administration was within the range of ±1 min, and the others were within 5% of the theoretical time).

[1] abbreviates: Examples compared to reference compound IDN-6556.

Like-named read-outs stand apart in the source and are kept apart here.

As for `O=C(O)C[C@H](NC(=O)C1CCN(C(=O)C2CCCC2)CC1)C(=O)COc1c(F)c(F)cc(F)c1F` [Example 49], the “in vivo exposure (in words)” value under setting [1] is “significantly improved”. For the same compound, under “intravenous injection 1 mpk”, the “Apparent volume of distribution” value stood at 0.653 L/kg, the “Area under the concentration-time curve” value came to 852 nM·h, the Clearance rate was 38.6 mL/min/kg and the Half-life amounted to 52.2 min. Where the note is “oral administration 10 mpk”, the “Area under the concentration-time curve” value was determined as 1708 nM·h, the Bioavailability was determined as 20.1%, the Peak concentration came to 405 nM and the “Time to peak concentration” value came out at 1 h.
For `O=C(O)C[C@H](NC(=O)C1CCN(C(=O)OC2CCCC2)CC1)C(=O)COc1c(F)c(F)cc(F)c1F` [Example 69], the “in vivo exposure (in words)” value under setting [1] is “significantly improved”. For the same compound, for the setting “oral administration 10 mpk”, the “Area under the concentration-time curve” value was 4180 nM·h, the Peak concentration is 1993 nM and the “Time to peak concentration” value was 0.5 h.
Turning to `C[C@H](NC(=O)C(=O)Nc1ccccc1C(C)(C)C)C(=O)N[C@@H](CC(=O)O)C(=O)COc1c(F)c(F)cc(F)c1F` [IDN-6556, reference compound], under setting [1], the “half-life (in words)” value is “relatively short” and the “in vivo exposure (in words)” value is reported as “low”. For the setting “intravenous injection 1 mpk”, the “Apparent volume of distribution” value was 0.82 L/kg, the “Area under the concentration-time curve” value is 446 nM·h, the Clearance rate was found to be 106 mL/min/kg and the Half-life was found to be 15 min. In addition, for the setting “male, plasma, 10 mg/kg, oral administration 10 mpk, read-out: Bioavailability”, the Bioavailability is not above 4%. For the same compound, under “oral administration 10 mpk”, the “Area under the concentration-time curve” value turned out to be 197 nM·h, the Bioavailability was determined as 4.4%, the Peak concentration amounted to 227 nM and the “Time to peak concentration” value is reported as 0.25 h.
